The source of these data is patent publication US6962714B2, “Critical fluid antimicrobial compositions and their use and generation” (priority 2002, dated 2005).

Assay type in all cases: cell-based
Experiment [1] relates to Staphylococcus aureus ATCC 6538. In words: Aqueous suspension (solution) test, antimicrobial vent gas bubbled through broth. The note with it: S. aureus ATCC 6538, POAA in CO2 gas bubbled through 10 ml bacteria solution. How it is done:
(§1) Exposure times of 30 seconds and two minutes were tested.

The subject of experiment [2] is Escherichia coli ATCC 11229. The experiment is described as above. The note with it: E. coli ATCC 11229, POAA in CO2 gas bubbled through 10 ml bacteria solution. As for the experimental part: as §1
The test system of experiment [3] is Staphylococcus aureus ATCC 6538. As to the kind of experiment: Hard surface test, stainless steel coupon exposed to vent gas in closed vessel. The note with it: S. aureus ATCC 6538, vent gas five minutes. As for the experimental part:
(§2) The efficacy of peroxyacetic acid antimicrobial delivered via CO2 gas was tested in a hard surface test against Escherichia coli and Staphylococcus aureus.
(§3) The coupons were exposed to the peroxyacetic acid antimicrobial vent gas for five minutes. Dry and wet methods were used for the testing. In the dry method, a dry film was generated on the coupon by adding a 20 μl suspension onto the coupon surface and drying the solution prior to the experiment. In the wet method, the 20 μl suspension was added to the coupon surface immediately before placing the coupon in the syringe and exposing it to the antimicrobial gas. After exposure to the antimicrobial gas for a set time period, the coupon was removed and placed in an appropriate neutralizer to stop the antimicrobial chemical activity. The bacteria remaining on the coupons were then incubated and the population reduction was determined.

In experiment [4] the test system is Escherichia coli ATCC 11229. The experiment is described as above. The note with it: E. coli ATCC 11229, vent gas five minutes. As for the experimental part:
as §2, §3

Where [5] appears, read: exposure 2 minutes, listed as peroxyacetic acid.
[6] abbreviates: dry method (dry bacterial film on coupon).
[7] abbreviates: wet method (20 μl bacterial suspension on coupon).

On to `CC(=O)OO` [POAA, peroxyacetic acid], for which the “Log Reduction” value in experiment [1] (exposure 30 seconds) is 2.5 log; in experiment [1] (exposure 2 minutes) it was 6.3 log; in experiment [1] (setting [5]), “greater than 6 log”; in experiment [2] (exposure 30 seconds), 1.1 log; in experiment [2] (exposure 2 minutes), 6.1 log; in experiment [2] (setting [5]) it was “greater than 6 log”. The “Log Reduction” value in experiment [3] (setting [6]) is on record as 5.5 log; in experiment [3] (setting [7]), 5.5 log; in experiment [4] (setting [6]), 6.5 log; in experiment [4] (setting [7]) it was 6.5 log.
